Earlier results in patent US6200975A, “Substituted 1,2,4-triazolo[3,4-a]phthalazine derivatives as GABA alpha 5 ligands” (Merck Sharp & Dohme Limited, priority 1997, dated 2001).

Settings: reported by McNamara and Skelton

Compound: COC(=O)c1cc2c(cn1)[nH]c1ccccc12 [β-CCM]
- spatial learning in the Morris watermaze: enhanced spatial learning
